Data taken from patent US5807832A, “Oral delivery of biologically active substances bound to vitamin B12” (Biotech Australia Pty Limited, priority 1988, dated 1998).

How the values were obtained:
Assay type in all cases: in vivo
[1] = test system: Mature C57B1/6J female mice; assay: Stimulation of ovulation in PMSG-primed mice (corpora haemorrhagica on the ovaries)
Description: Mature C57B1/6J female mice were treated in the following fashion: On day 0 all mice received a subcutaneous (s.'c) superovulating dose of pregnant mare serum gonadotraphin (PMSG) to stimulate the growth of ovarian follicles. After 48 hours mice received various doses of LHRH, Lys-6-LHRH or saline. On day 3 mice were sacrificed and examined for ovulation. Ovulation was assessed by examining for the presence of corpora haemorrhagica on the ovaries using a stereoscopic microscope at […].

S. typhimurium = assay: Systemic S. typhimurium infection in mice: survival and clearance; conditions: for Elimination of systemic S. typhimurium infection / prevention of death (in words): 1 mg total dose; for Suvivors (day 10) Number / Suvivors (day 10) Percentage: total dose 1 mg as five doses 12 h apart from day 3, mice fed 1×10^6 S. typhimurium on day 0
C57B1/6J mice [2] = assay: Footpad assay for DTH (footpad swelling); conditions: oral 50 μg priming dose, challenge with 10 μg immunizing antigen in right foot, swelling after 24 h
Description: Feeding of these VB12-protein complexed was also capable of stimulating good cellular immunity (as measured by the footpad assay for DTH).
+ Footpad swelling was measured in mm using a microcaliper. All groups
received a 50 μg priming dose of antigen followed by challenge with 10
μg of the immunizing antigen in the right foot and 10 μg of
ovalbumen in the left footpad. Swelling was measured after 24 h.

C57B1/6J mice [3] = assay: Serum antibody response (ELISA titre) after oral feeding of antigen; conditions: two feedings of antigen (50 μg) on days 1 and 14, reciprocal of antiserum dilution giving ELISA reading 0.5, day 21, mean of 15 mice ±1 SD
Description: Female C57B1/6J mice (18-22 g) were obtained from the Animal Resources Centre (Perth, Western Australia). All mice received conjugate preparations in 0.5 ml of 0.1M carbonate/bicarbonate buffer pH9.5 using a specially prepared feeding needle. Mice were fed on days 0 and 14. On day 21 the mice were bled from the orbital plexus. Antibody titres of serum were determined by ELISA using alkaline phosphatase conjugated anti-mouse serum.
The possible potential for VB12 deliver protein molecules, covalently linked to it, from the intestine to the circulation was investigated. The immune response generated to this complex was compared to that generated by the protein fed alone or together with VB12, or to the protein injected intramuscularly.
* The reciprocal of the antiserum dilution that gave an ELISA reading of
0.5 afer 45min. at 37° C. on day 21 after initial feeding. Each
value represents the mean of 15 mice ±1 standard deviation. Mice
received two feedings of antigen (50 μg) on days 1 and 14. On day 21
mice were bled from the retro orbital plaxus and the antibody titres
measured by ELISA as described previously (RussellJones et al., 1984).
Each protein molecule was substituted with an average of 5 VB12 groups.

| Substance | Number of mice ovulating ([1]; Table 2, PMSG 4 IU day 0, 50 μg iv day 2) | Number of mice ovulating ([1]; Table 2, PMSG 8 IU day 0, 50 μg iv day 2) | Number of mice ovulating ([1]; Table 3, PMSG 8 IU day 0, 50 μg/os day 2) | Number of mice ovulating ([1]; Table 4, PMSG 8 IU day 0, 6 μg/os day 2) | Number of mice ovulating ([1]; Table 4, PMSG 8 IU day 0, 12 μg/os day 2) | Number of mice ovulating ([1]; Table 4, PMSG 8 IU day 0, 25 μg/os day 2) | Number of mice ovulating ([1]; Table 4, PMSG 8 IU day 0, 50 μg/os day 2) | Elimination of systemic S. typhimurium infection / prevention of death (in words) (S. typhimurium; i.m. injection) | Suvivors (day 10) Number (S. typhimurium; i.m.) | Suvivors (day 10) Percentage (S. typhimurium; i.m.) [%] | Elimination of systemic S. typhimurium infection / prevention of death (in words) (S. typhimurium; oral) | Suvivors (day 10) Number (S. typhimurium; oral) | Suvivors (day 10) Percentage (S. typhimurium; oral) [%] | Footpad Response (footpad swelling) (C57B1/6J mice [2]) [mm] | Serum Antibody Response (C57B1/6J mice [3]) |
| --- | --- | --- | --- | --- | --- | --- | --- | --- | --- | --- | --- | --- | --- | --- | --- |
| lutenizing hormone releasing hormone [LHRH] | 1/3 | 1/4 | 1/5 | 0/5 | 0/5 | 1/5 | 1/5 | – | – | – | – | – | – | – | – |
| neomycin | – | – | – | – | – | – | – | could be saved | 2 | 100 | not able to eliminate systemic infection | 0 | 0 | – | – |
| vitamin B12 [VB12] | – | – | – | – | – | – | – | – | – | – | – | 0 | 0 | 0 | < 4 |
